We go through 8 compounds from patent US4877807A, “5-phenyl-1,2,3a,4,5,9b-hexahydro-3H-benz(e)indotes preparation and use thereof as drugs” (BASF Aktiengesellschaft, priority 1987, dated 1989).

Structures can show the parent of a compound that is named as a salt.

The test system of experiment [1] is reserpine-inducd hypothermia in male mice (NMRI strain). Kind of experiment: Inhibition of reserpine-induced hypothermia in mice (antidepressive action). It counts as in vivo. Conditions: oral; for ED50: Mus musculus, 60 minutes before reserpine 2.15 mg/kg s.c., dose inhibiting reserpine-induced hypothermia by 50%, read-out: Antidepressive action ED 50; for effectiveness higher than that of imipramine, factor: ED 50 relative to imipramine. On the procedure:
The antidepressive activity of the substances according to the invention was studied using the following model:
Antidepressant substances inhibit this hypothermic effect, the degree of inhibition depending on the dose. The test substances were administered orally 60 minutes before the reserpine was administered.
The dose which inhibits reserpine-inducd hypothermia by 50%, ie. ED 50, is determined from the linear regression between log dose (mg/kg) and the relative decrease in the hypothermic effect.

The subject of experiment [2] is tonic spasms induced by electroshock in female mice (NMRI strain). Kind of experiment: Inhibition of electroshock-induced tonic spasms in mice (anticonvulsive action). It counts as in vivo. Conditions: oral; for ED50: Mus musculus, 1 h, 60 minutes before electroshock, dose inhibiting tonic spasms in 50% of the animals, n/dose=8, read-out: Anticonvulsive action ED 50. On the procedure:
The anticonvulsive action was measured on female mice (NMRI strain) having a weight of 22-26 g. Tonic spasms were induced by electroshock via ear electrodes. Stimulus data: a series of square-wave pulses 4.64 ms in duration and 14.7 mA in amplitude; frequency 100 Hz; duration of series 0.2 sec.
The electroshock was administered 60 minutes after the oral administration of the test compounds, and the appearance of tonic spasms was counted. n/dose=8. The ratios between the effectiveness (% protected animals) and log dose were calculated by probit analysis. ED 50 is the dose which inhibits the tonic spsms in 50% of the animals.

`CCN1CC[C@@H]2c3ccccc3[C@H](c3ccccc3)C[C@@H]21` (relative stereo) [Example 5, (±)-3aS(R),5S(R),9bR(S)-3-ethyl-5-phenyl-1,2,3a,4,5,9b-hexahydro-3H-benz[e]indole hydrochloride]: the ED50 was 0.14 mg/kg in experiment [1] and about 100 mg/kg in experiment [2].
Take `CN1CC[C@@H]2c3ccccc3[C@H](c3ccccc3)C[C@@H]21` [Example 4, (+)-3aS,5S,9bR-3-Methyl-5-phenyl-1,2,3a,4,5,9b-hexahydro-3H-benzo[e]indole]: in experiment [1], the “effectiveness higher than that of imipramine, factor” value is given as “about 45” and the ED50 is 0.087 mg/kg. In addition, the ED50 in experiment [2] is about 46.4 mg/kg.
`CCCN1CC[C@@H]2c3ccccc3[C@H](c3ccccc3)C[C@@H]21` (relative stereo) [Example 7, (±)-3aS(R),5S(R),9bR(S)-3-n-propyl-5-phenyl-1,2,3a,4,5,9b-hexahydro-3H-benz[e]indole hydrochloride]: the ED50 was found to be 0.26 mg/kg in experiment [1] and 11.9 mg/kg in experiment [2].
In the case of `CCN1CC[C@H]2c3ccccc3[C@H](c3ccccc3)C[C@@H]21` (relative stereo) [Example 6, (±)-3aR(S),5R(S),9bR(S)-3-Ethyl-5-phenyl-1,2,3a,4,5,9b-hexahydro-3H-benz[e]indole hydrochloride], the ED50 in experiment [1] turned out to be 1.61 mg/kg; in experiment [2], 8.81 mg/kg. Moreover, the “anticonvulsive effectiveness compared with phenytoin (in words)” value in experiment [2] is “equalled or substantially exceeded”.
For the compound `O=C1NC(=O)C(c2ccccc2)(c2ccccc2)N1` [phenytoin, reference compound], the ED50 in experiment [2] was 14.3 mg/kg.
`CN(C)CCCN1c2ccccc2CCc2ccccc21` [imipramine, reference compound]: in experiment [1], the ED50 is 3.82 mg/kg.
Regarding `CN1CC[C@@H]2c3ccccc3[C@H](c3ccccc3)C[C@@H]21` (relative stereo) [Example 1, (±)-3aS(R),5S(R),9bR(S)-3-Methyl-5-phenyl-1,2,3a,4,5,9b-hexahydro-3H -benz[e]indole hydrochloride], in experiment [1], the “effectiveness higher than that of imipramine, factor” value is “about 45” and the ED50 came to 0.082 mg/kg. In addition, in experiment [2], the ED50 was 1.1 mg/kg and the “anticonvulsive effectiveness compared with phenytoin (in words)” value is “equalled or substantially exceeded”.
In the case of `CN1CC[C@H]2c3ccccc3[C@H](c3ccccc3)C[C@@H]21` (relative stereo) [Example 2, (±)-3aR(S),5R(S),9bR(S)-3-Methyl-5-phenyl-1,2,3a,4,5,9b-hexahydro-3H-benz[e]indole], the ED50 in experiment [1] was 5.01 mg/kg.
